Results taken from patent US12390421B2, “Zwitterionic dendritic amphiphiles, zwitterionic dendrimers, zwitterionic telodendrimers, nanocarriers comprising same, and methods of making and using same” (The Research Foundation for the State University of New York, priority 2017, dated 2025).

Test system: SKOV-3 cancer cell
Assay: Cellular uptake of protein/drug loaded nanocarriers
Assay type: cell-based
Source text: Cellular uptake of protein/drug delivered by zwitterionic nanocarriers. The internalization of protein/drug loaded zwitterionic nanocarrier was studied against SKOV-3 cancer cell. […] Folate targeting group modification facilitates FITC-BSA-loaded NP_CB internalization into cells compared to non-targeted NP_CB. […] The ability of NPs to deliver drug into cells was studied using DOX as model drug by taking advantage of its intricate fluorescence.

free FITC-BSA: FITC-labeled BSA, model protein
cellular uptake of FITC-BSA (SKOV-3, FITC-BSA free or loaded, 1 h): no fluorescence signal

COc1cccc2c1C(=O)c1c(O)c3c(c(O)c1C2=O)C[C@@](O)(C(=O)CO)C[C@@H]3O[C@H]1C[C@H](N)[C@H](O)[C@H](C)O1.Cl [free DOX, Doxorubicin hydrochloride]
cellular uptake of DOX (SKOV-3, DOX free or loaded, 2 h): Strong fluorescence and absolute presence of DOX in nucleus
